For data set [1], the system named is serum ceruloplasmin. The data set can be described thus: Serum ceruloplasmin (surrogate marker of free copper) in rats. The format is in vivo, Sprague-Dawley rats. Conditions: daily 10 mg/kg TTM within 4 weeks. The protocol:
Copper status in mammals treated with TTM cannot be reliably followed by measuring total serum copper level because the chelated copper will still be detected. Serum ceruloplasmin, whose synthesis is directly regulated by the bio-availability of copper to the liver, is a more accurate indicator of free copper and is used as a surrogate marker of free copper status Schosinksy et al., 1974, Clin. Chem. 20:1556-1563. Serum ceruloplasmin was assessed as baseline level before the TTM-treatment, as well as on the day of the injury and on the final day. Blood (0.5 to 1 ml) was obtained from the tail vein after anesthesia was centrifuged for 10 minutes at 2000×G and the serum was frozen at −20° C. until assay. Ceruloplasmin oxidative activity was measured as described previously (Schosinsky et al., 1974, Clin. Chem. 20:1556-1563).

Data set [2] has as its system balloon-injured rat carotid artery. The data set can be described thus: S100A13, IL1, p40, PS expression in balloon-injured vessel wall (immunohistochemistry). The class given is in vivo, Sprague-Dawley rats. The protocol:
In order to address the mechanisms underlying the effect of copper chelation on neointima formation, TTM was administered for 2 weeks before the balloon injury and daily after that until the animals were euthanized at the 4th and 7th day after the procedure. Accordingly, TTM-free animals euthanized 4 and 7 days after the injury were used as controls.
To evaluate S100A13, FGF1, p40 and IL-1α expression in balloon-injured arteries, paraffin-embedded specimens from the 4th, 7th and 14th day after the injury were cut into 5-μm cross sections, and mounted on glass slides. These sections were incubated in 10% hydrogen peroxide for 90 minutes to block endogenous peroxidase activity. Nonspecific binding was prevented by preincubating the sections with 5% bovine serum albumin (BSA; Sigma) in PBS. The sections were sequentially incubated with polyclonal rabbit anti-S100A13 antibody at a concentration of 1:200; polyclonal rabbit anti-FGF1 antibody at a concentration of 1:500; monoclonal mouse anti-p40 antibody at a concentration of 1:100; polyclonal rabbit anti-IL-1a antibody at a concentration of 1:50; phosphatidylserine (PS) antibody. After they were washed with PBS, the sections were incubated with anti-rabbit and anti-mouse IgG-conjugated horseradish peroxidase (Biorad) for an additional 30 minutes at room temperature. Each incubation was followed by a wash in PBS. Staining was visualized using the chromogen 0.06% 3,3′-diaminobenzidine/5% hydrogen peroxide in 0.05 mol/L Tris-HCl (pH 7.6). Control sections were incubated with nonimmune rabbit IgG at a concentration of 1:200.

For data set [3] the following is noted: rat, in vivo, 10 mg/kg.
Experimental: A copper chelator, ammonium tetrathiomolybdate (Sigma Aldrich), was administered daily in a dose of 10 mg/kg. The total daily amount was freshly dissolved into 45 ml water and was dispensed to the rats in the drinking water. To assess the effect of copper chelation on neointimal formation after common carotid artery denudation, TTM was given as follows: TTM administration started 2 weeks before the injury in 6 rats; 1 week before the injury in 6 rats; there was no pre-injury treatment with TTM in 5 rats. All those rats were treated with TTM for 2 weeks after the balloon injury. Five rats, which underwent the surgical procedure and were never treated with TTM, served as controls.
Data set [4] has as its system balloon-injured rat carotid artery. The data set can be described thus: Neointima formation after balloon injury of rat carotid artery (histomorphometry, I/M ratio). The class given is in vivo, Sprague-Dawley rats. From the text: Seventy-nine Sprague-Dawley male rats (Charles River Laboratories) weighing 350 to 450 grams, at 12-16 weeks of age, were included in the study. All rats in this study were handled according to the animal welfare regulation of the Maine Medical Center Research Institute, and the study protocol has been approved by the Animal Care and Use Committee of that institution. The rats received humane care in accordance with the animal use principles of the American Society of Physiology. All rats were maintained under identical conditions of temperature (21±1° C.), humidity (60±5%), and light/dark cycle, and had free access to normal rat chow.
To assess the effect of time course of copper chelation in relation to the injury on the neointima formation, 5 additional groups of rats were studied. All of them were treated with TTM for 2 weeks before the injury, and then TTM was withheld as follows: at the day of the injury (n=6) as well as 4 days (n-5), 6 days (n=7), 8 days (n=6), and 10 days (n=6) after the balloon denudation.
Rats were anesthetized with an intraperitoneal injection of ketamine (50 mg/kg) and xylazine (2.2 mg/kg). Angioplasty of the carotid artery was performed with a balloon embolectomy catheter as previously described. Briefly, the balloon catheter (2F Fogarty, Edwards Laboratories) was introduced through the left external carotid artery into the aorta, and the balloon was inflated. The vessel was damaged by passing an inflated balloon through the lumen three times. The catheter was rotated when pulling back. At the time of the final experiment, the animals were euthanized after anesthesia. A midline abdominal incision exposing the distal abdominal aorta was made. After retrograde cannulation of the abdominal aorta at its bifurcation with a 18-gauge intravenous catheter, the arterial tree was cleared of blood by perfusion with 100 ml of PBS (pH 7.2), followed by in vivo fixation with either 4% formaldehyde in phosphate-buffered saline (pH 7.2) or acetone/ethanol solution in 1:1 ratio. The entire left and right carotid arteries were harvested, including the aortic arch, innominate artery and left carotid bifurcation, and further immersed in the respective fixative. The injured left common carotid arteries were cut in three sections at least 4 mm long from the proximal, middle and distal part. From each study group, a part from the untreated contra-lateral right common carotid artery (control) was taken as well. The specimens were then dehydrated through a graded ethanol series, and embedded in paraffin for sectioning. Other arteries were not perfusion-fixed but were removed and immediately frozen. Three different segments of the left carotid artery were used for histological, morphometric, and immunohistochemical studies.
Morphometric analysis of the arterial segment was carried out in a blind manner on cross-sections stained with hematoxylin-eosin. For each animal at least 3 sections originating from the proximal, middle and distal segment of the injured vessel were quantitatively measured. Using a computerized digital microscopic planimetry algorithm (Optimas, Version 5.22), the areas within the external elastic lamina (EEL area), the internal elastic lamina (IEL area), and the luminal area were measured. Other areas were calculated as follows: medial area=EEL area−IEL area; neointimal area=IEL area−luminal area; neointima-to-media (I/M ratio=neointimal area/medial area.

For data set [5], the system named is ceruloplasmin. Conditions: cited from earlier work.

This is an account of results in patent US20090123565A9, “Copper-dependent non-traditional pro-inflammatory cytokine export and methods, compositions and kits relating thereto” (Maine Medical Center Research Institute, priority 2001, published 2009).

As to `[NH4+].[NH4+].[SH-].[SH-].[S]=[Mo]=[S]` [TTM, ammonium tetrathiomolybdate], the “ceruloplasmin reduction to” value in data set [1] was 0-20 % of its baseline level; in data set [5] (patients with cancer, withstood for months and years (Brewer et al., 2000)), 20 % of baseline. The “S100A13, IL1 and PS staining in the neointima” value in data set [2] (4 and 7 days after injury) is listed as “no positive staining was detected”; in data set [2] (14 days after the injury), “only a few cells were positively stained”. In addition, in data set [2] (7 and 14 days after the balloon injury), the IL1 positive staining entry is on record as “almost complete inhibition”. In data set [2] (7 and 14 days after the injury), the “presence of S100A13 compared to the controls” value is given as “significantly decreased”. Also, the phosphatidylserine flipping result in data set [2] (balloon-injured arteries, controls did show it) was “did not show phosphatidylserine flipping”. Further, in data set [3], the “effects upon visual inspection of the animals” value was “without detectable effects”. The “neointima development, hematoxylin-eosin, vs controls” value in data set [4] (4 days after the injury) is given as “no difference”; in data set [4] (day 7 after the injury), “more pronounced in the controls”. In addition, the intima/media ratio was determined as 0.96±0.121 in data set [4] (14 days after balloon injury, TTM 10 mg/kg daily started 1 week before injury, 2 weeks after, n=6, controls 1.76±0.105); 0.83±0.006 in data set [4] (14 days after balloon injury, TTM 10 mg/kg daily started 2 weeks before injury, 2 weeks after, n=6, controls 1.76±0.105); 1.27±0.04 in data set [4] (14 days after balloon injury, TTM 10 mg/kg daily started on the day of injury, 2 weeks after, n=5, controls 1.76±0.105); 0.76±0.06 in data set [4] (TTM started 2 weeks before injury, continued 6 days after); 0.83±0.1 in data set [4] (TTM started 2 weeks before injury, continued 8 days after); 0.79±0.013 in data set [4] (TTM started 2 weeks before injury, continued 10 days after). Moreover, the intima/media ratio in data set [4] (TTM started 2 weeks before injury, stopped at the day of the injury) is recorded as 1.29±0.19. In data set [4] (TTM administration before and after injury, vs controls), the “reduction in the neointima formation in the rat carotid artery” value is given as “up to 53%”. The “I/M ratio compared to the controls” value in data set [4] (each TTM regimen, 14 days after balloon injury (FIG. 6E)) is “significant decrease”. In addition, in data set [5] (humans, safely), the “time to induce copper deficiency” value is given as 2-4 weeks.
